From US4251655A, “Substituted N-iminomethylpiperidines” (McNeilab, Inc., priority 1979, dated 1981)
Counter-ions that a name gives are not always drawn. Like-named read-outs stand apart in the source and are kept apart here.

Assays:
gastric acid secretion [1] = test: Inhibition of gastric acid secretion (Total Acid Output) in rats; antisecretory activity; format: in vivo, Female Sprague-Dawley rats; conditions: for inhibition in vivo at 20 mg/kg: read-out: Percent Inhibition at 20 mg/kg id; for ED50: 1 h, read-out: ED50 (dose required to produce an average of 50% inhibition in Total Acid Output versus controls)
Method: The compounds of the invention are useful for inhibition of gastric acid secretion as measured by the following test. Female Sprague-Dawley rats are fasted twenty-four hours before testing and are given water ad libidum while being kept in individual cages. On the day of testing, the rats are weighed and are selected so that the rats in each test weigh within a range of ± 20 grams.
Surgery is carried out under light ether anesthesia. As soon as the rat is anesthetized its teeth are removed and a mid-line incision is made on the abdomen about 11/2 inches in length and the stomach and duodenum are exposed. If at this point the stomach is filled with food or fecal material, the rat is discarded. If the condition of the stomach is acceptable, a purse string stitch is placed on the fundic portion of the stomach with a suture, taking care not to pierce any blood vessels in the area. A small nick is then made into the stomach in the center of the purse string, and a cannula, consisting of a small vinyl tube with a flange on one end, is put into the stomach, and the purse string stitch is closed tightly around the flange. The test compound is administered either intraduodonally (i.d.) immediately after surgery or orally (p.o.) one hour prior to surgery at doses generally ranging from about 0.25 to about 160 mg/kg in a volume of 0.5 ml/100 grams rat. Control rats receive the test vehicle, 0.5% aqueous methyl cellulose.
After the surgery and (in the case of i.d. administration) after administration of the test compound, the abdominal wall and skin are closed simultaneously with three or four 18 mm wound clips and a collecting tube is placed on the cannula. Each rat is then placed in a box in which a longitudinal slit has been made to allow the cannula to hand freely and to allow the rat to move about unencumbered. After the rat has been allowed to stabilize for thirty minutes, the collection tube on the cannula is discarded and replaced with a clean tube to receive the gastric juice. Collections are made at one hour. At the end of the study, the cannula is removed and the rat is sacrificed.
The sample of gastric contents collected is drained into a centrifuge tube and centrifuged to pack down the sediment. The volume is read and a 1 ml aliquot of the supernatant is put into a beaker containing 10 ml distilled water and is titrated to pH7 using 0.01 N sodium hydroxide. Results are determined for Volume, Titratable Acid and Total Acid Output, where Volume equals total ml of gastric juice minus sediment; Titratable Acid (meg/1) equals amount of 0.01 N sodium hydroxide needed to titrate the acid to pH7; and Total Acid Output equals Titratable Acid times Volume. Results are reported as the ED50 dose (mg/kg required to produce an average of 50% inhibition in Total Acid Output versus controls in all the animals tested for a particular compound) and as percent inhibition.
Following the test procedure previously described, the following compounds were tested for their antisecretory activity. The ED50 values for p.o. administration and the percent inhibition for i.d. administration at 20 mg/kg are tabulated below (R1 '=H except where noted): […]

gastric acid secretion [2] = test: as above; format: in vivo, Female Sprague-Dawley rats; conditions: rat; for ED50: ip, intraperitoneally (footnote ++), read-out: ED50 (compound administered intraperitoneally)
[3] = rat, po, one hour prior to surgery

| Structure (SMILES) | ED50 (gastric acid secretion [1]; [3]) [mg/kg] | inhibition in vivo at 20 mg/kg (gastric acid secretion [1]; rat, id, 20 mg/kg) [%] | further results |
| --- | --- | --- | --- |
| CC(=O)C1(c2ccccc2)CCN(C=N)CC1 [R1=phenyl; A=drawing 20; R2=H; R3=H] | – | – | inhibition in vivo at 20 mg/kg (gastric acid secretion [1]; Rattus norvegicus): 71% |
| C(=NCCCCc1ccccc1)N1CCC(C(c2ccccc2)c2ccccc2)CC1 [R1=diphenylmethyl; A=H; R2=H; R3=drawing 19] | 8.1 | 82 | – |
| Cl.N=CN1CCC(C(c2ccccc2)c2ccccc2)CC1.O [R1=diphenylmethyl; A=H; R2=H; R3=H, 4-Diphenylmethyl-1-iminomethylpiperidine hydrochloride hydrate] | 0.7 | 100 | – |
| CCCCCCCCN=CN1CCC(C(c2ccccc2)c2ccc(C)cc2)CC1 (stereo not shown) | – | 73 | – |
| CCCCCCCCCN=CN1CCC(C(c2ccccc2)c2ccccc2)CC1 [R1=diphenylmethyl; A=H; R2=H; R3=n-nonyl] | 19.6 | 93 | – |
| CCCCCCCCN=C(C)N1CCC(C(c2ccccc2)c2ccccc2)CC1.[O-][Cl+3]([O-])([O-])O [4-(Diphenylmethyl)-1-[1-(octylimino)ethyl]-piperidine Monoperchlorate] | – | – | ED50 (gastric acid secretion [1]; Rattus norvegicus, po): 14 mg/kg; inhibition in vivo at 20 mg/kg (gastric acid secretion [1]; Rattus norvegicus): 98% |
| CCCCCCCCC=CCCCCCCCCN=CN1CCC(C(c2ccccc2)c2ccccc2)CC1 | 66 | 78.9 | – |
| CC(C)N=CN1CCC(C(c2ccccc2)c2ccccc2)CC1 | 9.8 | 96 | – |
| CCCCCCCCN=CN1CCC(=C(c2ccccc2)c2ccccc2)CC1 [R1,A=benzhydrylidene; R2=H; R3=n-octyl] | 0.625 | 68.2 | – |
| CCN=CN1CCC(C(c2ccccc2)c2ccccc2)CC1 [R1=diphenylmethyl; A=H; R2=H; R3=ethyl, 4-(Diphenylmethyl)-1-N-ethyliminomethyl-piperidine oxalate hemihydrate] | 4.3 | 100 | – |
| N=CN1CCC(C(c2ccccc2)c2ccc(Cl)cc2)CC1 (stereo not shown) | 2.32 | 100 | – |
| N=CN1CCC(c2ccccc2)CC1 [R1=phenyl; A=H; R2=H; R3=H] | ~40 | 77 | – |
| C=CCN=CN1CCC(C(c2ccccc2)c2ccccc2)CC1 | 10.2 | 100 | – |
| Clc1ccc(CN=CN2CCC(C(c3ccccc3)c3ccccc3)CC2)cc1 | 20.7 | 94 | – |
| COc1ccc(C(c2ccccc2)C2CCN(C=N)CC2)cc1 (stereo not shown) | 12.1 | 100 | – |
| CCCCCCCCCCCCN=CN1CCC(C(c2ccccc2)c2ccccc2)CC1.O=C(O)/C=C/C(=O)O [4-(Diphenylmethyl)-1-N-(n-dodecyliminomethyl)piperidine fumarate] | 53 | 80 | – |
| C(=NC12CC3CC(CC(C3)C1)C2)N1CCC(C(c2ccccc2)c2ccccc2)CC1 | 37 | 0 | % inhibition at 80 mg/kg i.d. (gastric acid secretion [2]; i.d., 80 mg/kg (footnote)): 52% |
| CCCCCCCCN=CN1CCC(C(c2ccccc2)c2ccc(O)cc2)CC1 (stereo not shown) [4-[(4-hydroxyphenyl)phenylmethyl]-1-[(octylimino)methyl]piperidine] | – | – | ED50 (gastric acid secretion [2]): 2 mg/kg |

| Structure (SMILES) | ED50 (gastric acid secretion [1]; [3]) [mg/kg] | inhibition in vivo at 20 mg/kg (gastric acid secretion [1]; rat, id, 20 mg/kg) [%] | further results |
| --- | --- | --- | --- |
| CCCCN=CN1CCC(C(c2ccccc2)c2ccccc2)CC1 [R1=diphenylmethyl; A=H; R2=H; R3=n-butyl] | 8.6 | 100 | – |
| CCCCCCCCCCN=CN1CCC(C(c2ccccc2)c2ccccc2)CC1 [R1=diphenylmethyl; A=H; R2=H; R3=n-decyl] | 8.2 | 79 | – |
| CCCCCCCCN=CN1CCC(C(O)(c2ccccc2)c2ccccc2)CC1 | – | – | ED50 (gastric acid secretion [2]): 5 mg/kg |
| C#CCN=CN1CCC(C(c2ccccc2)c2ccccc2)CC1 | 6.07 | 100 | – |
| N=CN1CCCCC1 [N-iminomethylpiperidine] | – | 0 | inhibition of gastric acid secretion at doses four times or greater than those at which the subject compounds are active (gastric acid secretion [1]; doses four times or greater than active doses of subject compounds): does not inhibit gastric acid secretion; inhibition of gastric acid secretion at a dose of 100 mg/kg p.o. (gastric acid secretion [1]; rat, p.o., 100 mg/kg): no inhibition whatsoever; ED50 (mg/kg po): result in words (gastric acid secretion [1]; rat, po, at 80 (mg/kg)): Inactive; inhibition of gastric acid secretion at 80 mg/kg i.d. (gastric acid secretion [2]; i.d., 80 mg/kg): no inhibition whatsoever |
| C(=NCCc1ccccc1)N1CCC(C(c2ccccc2)c2ccccc2)CC1 | 3.7 | 100 | – |
| CCCCCCCCN=CN1CCC(C(c2ccccc2)c2ccccc2)CC1.O.O=C(O)/C=C/C(=O)O [R1=diphenylmethyl; A=H; R2=H; R3=n-octyl, 4-(Diphenylmethyl)-1-[(octylimino)methyl]piperidine Fumarate Hydrate] | 9.8 | 64 | – |
| CCCCCCCCN=CN1CCC(C(c2ccccc2)c2ccc(OC)cc2)CC1 (stereo not shown) [4-[(4-methoxyphenyl)phenylmethyl]-1-[(octylimino)methyl]piperidine] | 16.9 | 62 | – |
| COc1ccc(CN=CN2CCC(C(c3ccccc3)c3ccccc3)CC2)cc1 | < 40 | 63 | – |
| CCCCCCN=CN1CCC(C(c2ccccc2)c2ccccc2)CC1 [R1=diphenylmethyl; A=H; R2=H; R3=n-hexyl] | 8.7 | 96 | – |
| CCCCCCCCN=CN1CCC(C2c3ccccc3-c3ccccc32)CC1 [R1=9-fluorenyl; A=H; R2=H; R3=n-octyl] | 15.9 | 48 | – |
| N=CN1CCC(Cc2ccccc2)CC1 [R1=benzyl; A=H; R2=H; R3=H] | 114 | 98 | – |
| CCCCCCCCN=CN1CCCC(C(c2ccccc2)c2ccccc2)C1 (stereo not shown) | 18.3 | 92.2 | – |
| CCCCCCCN=CN1CCC(C(c2ccccc2)c2ccccc2)CC1 | 11.6 | 72 | – |
| N=CN1CCCC(C(c2ccccc2)c2ccccc2)C1 (stereo not shown) | – | 68 | ED50 (gastric acid secretion [2]): 7 mg/kg |
| CCC(=N)N1CCC(C(c2ccccc2)c2ccccc2)CC1 [R1=diphenylmethyl; A=H; R2=ethyl; R3=H] | > 40 | 75 | – |
| C(=NCc1ccccc1)N1CCC(C(c2ccccc2)c2ccccc2)CC1 [R1=diphenylmethyl; A=H; R2=H; R3=benzyl] | 3.3 | 100 | – |
